In publication PMC8424644, “Thermodynamic Stability and Speciation of Ga(III) and Zr(IV) Complexes with High-Denticity Hydroxamate Chelators” (Inorganic Chemistry, 2021):

Assays:
[1] = Fe(III)–Ga(III) metal–metal competition UV–vis titrations; format: physicochemical; conditions: Ga(III)-L + Fe(III) competition titration, pH 1.5; judged to carry a greater error, not retained
Procedure: Assuming the domination of the [GaHL1]^+ complex below pH 2, its stability was determined by metal–metal competition titrations, (i) Fe(III)-H3L1 + Ga(III) and (ii) Ga(III)-H3L1 + Fe(III), both performed at pH 1.5. This pH was chosen in order to prevent the hydrolysis of the free metal ions and decomposition of the ligand, which is common for hydroxamic acids at a very acidic pH.[37],[51] Upon addition of Ga(III) (up to 600 equiv) to the Fe(III)-H3L1 solution, the UV–vis band of [FeHL1]^+ (λmax = 470 nm, Figure 2a) slowly disappeared as a result of the [GaHL1]^+ complex formation. […]
For the Ga(III)-H4L2 system, [GaH2L2]^+ was assumed to be the most abundant species at pH 1.5, and its stability was again determined via (i) Fe(III)-H4L2 + Ga(III) and (ii) Ga(III)-H4L2 + Fe(III) titrations (Figure S8). […]
For the Ga(III)-H3L4 system, [GaHL4]^+ was assumed to be the major complex at pH 1.5, and its stability was determined via an Fe(III)-H3L4 + Ga(III) competition titration (Figure S9). […]
In order to calculate the stability constants of the investigated complexes, several competitive titrations were performed. […] After preparation, each solution was allowed to equilibrate for about 1 h, and then its UV–vis spectrum was recorded. The vials were kept in the dark, and the absorbance was measured again after 24, 48, and 120 h. […]

[2] = pGa calculation (ligand sequestering ability); format: physicochemical; conditions: pGa = −log[Ga(III)free], pH 7.4, cL = 10 μM, cGa(III) = 1 μM
Description: Despite a large variety of PET chelators synthesized and tested in order to provide strong coordination of Ga(III) and Zr(IV) in vivo, until now it is has been hard to avoid the release of these metal ions in the body. Here we report two new Ga(III) and Zr(IV) hydroxamate chelators, designed to achieve an efficient sequestering of these metal ions but also to understand how the cyclization and the introduction of an additional hydroxamate group influences the stability of Zr(IV) complexes. Therefore, it is important to evaluate and compare the Ga(III)- and Zr(IV)-sequestering abilities of H3L1 and H4L2 with those of other chelators. However, the direct comparison of the stability constants of metal complexes is not straightforward, and other tools taking into account all the physicochemical properties of the ligands, i.e. their denticity, coordination modes, and acid–base properties, should be used.[52] In order to reliably compare the chelating abilities of H3L1 and H4L2 toward Ga(III) and Zr(IV) ions, the pM values were calculated. pFe was originally introduced by Raymond for the comparison of iron-siderophore systems;[53] pGa = −log[Ga(III)free] and pZr = −log[Zr(IV)free] were calculated at pH 7.4 with cL = 10 μM and cGa(III)/Zr(IV) = 1 μM (Table 2).

Structure (SMILES): O=C1CCCN(O)C(=O)CCCNC(=O)CCCN(O)C(=O)CCCNC(=O)CCCN(O)C(=O)CCCN1 [H3L1, 1,11,21-Trihydroxy-1,6,11,16,21,26-hexaazacyclotriacontane-2,7,12,17,22,27-hexaone]
- log β [GaHL] [1]: 28.3(6)
- pGa [2]: 22.5

Structure (SMILES): N[C@H]1CCCCNC(=O)CCCN(O)C(=O)CCCNC(=O)CCCN(O)C(=O)CCCNC(=O)CCCN(O)C(=O)CCCNC(=O)CCCN(O)C(=O)CCCNC1=O [H4L2, (S)-43-Amino-6,16,26,36-tetrahydroxy-1,6,11,16,21,26,31,36,41-nonaazacycloheptatetracontane-2,7,12,17,22,27,32,37,42-nonaone]
- log β [GaH2L] [1]: 39.06(4)
- pGa [2]: 22.3
